Data on five compounds can be found in patent US4808620A, “Pyrazolopyridine compounds, their preparation and use as platelet aggregation inhibitors” (Yoshitomi Pharmaceutical Industries, Ltd., priority 1986, dated 1989).

The subject of test [1] is Acute Inflammation (carrageenin). Briefly: Effect on Acute Inflammation (carrageenin hind paw, method of Winter et al). Type of test: in vivo, Male Donryu rats. To be noted: Rattus norvegicus, po; rats, p.o., 1 h before 1% carrageenin, foot volume 3 h later; read-out: ED50, Pharmacological Experiment (2), acute inflammation. On the procedure:
Effect on Acute Inflammation
The experiment was performed according to the method of Winter et al described in Proc. Soc. Exp. Biol. Med., vol. 111, p. 544 (1962). Male Donryu rats weighing about 140 g which was fastened for 18 hours were used in groups of five animals. Test compound solution was orally administered and one hour later, 0.05 ml of saline solution containing 1% carrageenin was injected into the right hind paw. Three hours later, the foot volume was measured by the water displacement method. The rate of increase against the foot volume before the injection of carrageenin was calculated, and the inhibitory rate was determined as compared with the control group. The 50% effective dose (ED50, mg/kg) was determined by the linear regression method.
For orientation: Carrageenan injected into the paw causes an acute inflammation.

Test [2] has as its system Platelet Aggregation induced by Arachidonic Acid. Briefly: Effect on the Platelet Aggregation induced by Arachidonic Acid. Type of test: cell-based, Male Hartley guinea pigs. To be noted: Cavia porcellus, guinea pig PRP, 37° C., arachidonic acid 5×10^-4 M, maximum aggregation value, read-out: IC50, Pharmacological Experiment (4), platelet aggregation. As for the experimental part:
Effect on the Platelet Aggregation induced by Arachidonic Acid
Male Hartley guinea pigs weighing 400-500 g were subjected to the abdominal operation under etherization. The citrated blood (9 volumes of blood and one volume of 3.8% sodium citrate solution) was collected from the abdominal aorta. Immediately, the blood was centrifuged at 150×g for 3 minutes to obtained platelet-rich plasma (PRP) as a supernatant. The remaining blood was centrifuged at 1400×g for 10 minutes to obtain platelet-poor plasma (PPP) as a supernatant. The number of platelet in PRP was adjusted to 4-6×10^5 platelets/mm^3 by adding PPP thereto The platelet aggregation was measured by using a platelet aggregometer according to the method of Born et al described in J. Physiol., vol. 168, p. 178 (1963). Test compound solution was added to PRP under stirring at 1500 rpm at 37° C., and two minutes later arachidonic acid (final concentration: 5×10^-4 M) is added thereto. The change of transmittance was recorded consecutively. The transmittance was adjusted to 0 and 100% with PRP and PPP, respectively. The inhibitory rate was calculated against the control group by using the maximum aggregation value as an index, and 50% inhibitory concentration(IC50, μg/ml) was determined by the linear regression method.

Test [3] concerns Chronic Inflammation (adjuvant arthritis). Briefly: Effect on Chronic Inflammation (adjuvant arthritis, method of Newbould). Type of test: in vivo, male Lewis rats. Particulars: Rattus norvegicus, po; adjuvant arthritis rats, p.o. once a day from 15th to 24th day, decrease of foot volume vs 15th day; read-out: MED, Pharmacological Experiment (3), chronic inflammation. As for the experimental part: Effect on Chronic Inflammation The experiment was performed by employing 10-week old male Lewis rats according to the method of Newbould described in Brit. J. Pharmacol., vol. 21, p. 127 (1963). Dead tubercle bacilli ([…] H5 type) suspended in liquid paraffin (0.5 mg/0.1 ml) was inoculated as adjuvant into the skin at the base of tail. Animals with arthritis were chosen on the 15th day and divided into groups of seven. Test compound solution (5 ml/kg) was orally administered once a day from 15th day of 24th day consecutively. The rate of change of the foot volume on the 24th day against the foot volume on the 15th day was calculated, and the inhibitory rate was determined as compared with the control group. The minimun effective dose (MED, mg/kg) was obtained based on the dose indicating the decrease of foot volume than the foot volume on the 15th day.

Test [4] deals with stretch symptom induced by phenylquinone. Briefly: Analgesic Activity (phenylquinone-induced stretch symptom, method of Hendershot et al). Type of test: in vivo, Male ddY mice. Particulars: Mus musculus, po; mice, p.o., 1 h before 0.02% phenylquinone i.p., stretch frequency for 20 min; read-out: ED50, Pharmacological Experiment (1), analgesic activity. As for the experimental part:
The experiment was performed according to the method of Hendershot et al described in J. Pharmacol. Exp. Ther., vol. 125, P. 237 (1959). Male ddY mice weighing 18-25 g were used in groups of 6-18. One hour after the oral administration of test compound solution (10 ml/kg), 10 ml/kg of 0.02% aqueous phenylquinone solution was intraperitoneally administered to the animal. The frequency of stretch symptom thus induced measured for 20 minutes. The inhibitory rate was determined in comparison with the control group and the 50% effective dose (ED50, mg/kg) was caluculated according to the linear regression method.

Values after ≈ are worked out from the molar mass of the structure shown.

For orientation: ED50 means the dose that gives a 50% effect, or the effect in half of the subjects. The term IC50 denotes the concentration needed to halve the response being measured. For `Cn1nc(-c2cc(C(C)(C)C)c(O)c(C(C)(C)C)c2)c2cccnc21` [Compound A, 3-(3,5-di-tertiarybutyl-4-hydroxyphenyl)-1-methyl-1H-pyrazolo[3,4-b]pyridine], the ED50 in test [1] worked out at 70 mg/kg; in test [4] it was 9.5 mg/kg. In test [2], the IC50 is 1.05 µg/mL (≈ 3.11 µM). In addition, in test [3], the minimal effective dose is 0.3 mg/kg.

For `CC(C)(C)c1cc(-c2nn(CCO)c3ncccc23)cc(C(C)(C)C)c1O` [Compound B, 3-(3,5-di-tertiarybutyl-4-hydroxyphenyl)-1-(2-hydroxyethyl)-1H-pyrazolo [3,4-b]pyridine], the ED50 in test [1] stood at 44 mg/kg; in test [4] it was 19 mg/kg. Also, the IC50 in test [2] was determined as 0.09 µg/mL (≈ 0.245 µM). The minimal effective dose in test [3] was determined as 3 mg/kg.

Turning to `CCC(=O)OCCn1nc(-c2cc(C(C)(C)C)c(O)c(C(C)(C)C)c2)c2cccnc21` [Compound C, 3-(3,5-di-tertiarybutyl-4-hydroxyphenyl)-1-(2"propionyloxyethyl)-1H-pyrazolo [3,4-]pyridine], the figures for the median effective dose (ED50) in test [1] and in test [4] were 8 mg/kg and 1.1 mg/kg, respectively. Also, the IC50 in test [2] was determined as 0.95 µg/mL (≈ 2.24 µM). Further, the minimal effective dose in test [3] came out at 0.3 mg/kg.

Take `CCOC(=O)CCn1nc(-c2cc(C(C)(C)C)c(O)c(C(C)(C)C)c2)c2cccnc21` [Compound D, 3-(3,5-di-tertiarybutyl-4-hydroxyphenyl)-1-(2-ethoxycarbonylethyl)-1H-pyrazolo [3,4-b]pyridine]: the ED50 in test [1] is 8.3 mg/kg; in test [4], 0.56 mg/kg. For the same compound, in test [2], the 50% inhibitory concentration (IC50) amounted to 0.12 µg/mL (≈ 0.283 µM). Moreover, in test [3], the minimal effective dose came to 1 mg/kg.

On to `CC(=O)OCCn1nc(-c2cc(C(C)(C)C)c(O)c(C(C)(C)C)c2)c2cccnc21` [Compound E, 1-(acetoxyethyl)-3-(3,5-di-tertiarybutyl-4-hydroxyphenyl)-1H-pyrazolo[3,4-b]pyridine], for which the ED50 in test [1] is 14 mg/kg; in test [4], 0.35 mg/kg. The half-maximal inhibitory concentration (IC50) in test [2] amounted to 0.9 µg/mL (≈ 2.2 µM). Further, in test [3], the minimal effective dose came out at 0.3 mg/kg.
